Results as given in US11780826B2 (Amgen Inc., priority 2017, dated 2023).

Test system: Bovine cardiac myofibrils
Assay: In vitro model of dose-dependent myofibril ATPase modulation (AC1.4, pyruvate kinase/lactate dehydrogenase-coupled ATPase assay at pCa25)
Format: biochemical
Details: concentration at which ATPase activity was 1.4-fold higher than the bottom of the dose curve, mean of a minimum of two independent tests
Summary of the method: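 ATP turnover tracked as NADH absorbance loss at 340 nm, coupled via pyruvate kinase/lactate dehydrogenase, with 1 mM ATP, 2 mM MgCl2 and 12 mM K-PIPES at pH 6.80 (22° C) under EGTA/CaCl2 calcium buffering. Substrate was detergent-treated bovine cardiac myofibrils; 4-parameter curve fit, AC1.4 averaged over at least two runs.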

Structure (SMILES)	AC1.4 [µM]
O=C(NCc1ccc(C(F)(F)F)cc1)[C@H]1CCCN1C(=O)c1cccc(S(=O)(=O)N2CC3(CC3)C2)c1 [Example 350, 1-((3-(5-azaspiro[2.3]hex-5-ylsulfonyl)phenyl)carbonyl)-N-(4-(trifluoromethyl)benzyl)-D-prolinamide]	1.0349
N#CC1CN(S(=O)(=O)N2CCC[C@H](C(=O)N3CCC[C@@H]3C(=O)N[C@@H](c3cc(F)c(Cl)cc3F)C3CNC3)C2)C1 (single isomer, unassigned) [Example 558]	2.928
O=C(NCc1ccc(C(F)(F)F)cc1)[C@H]1CCCN1C(=O)[C@H]1CCCN(S(=O)(=O)C2CCC2)C1 [Example 780, (R)-1-((S)-1-(cyclobutylsulfonyl)piperidine-3-carbonyl)-N-(4-(trifluoromethyl)benzyl)pyrrolidine-2-carboxamide]	8.4235
C[C@H](C(=O)N[C@H](C)c1ccc(Cl)cc1F)N(C)C(=O)[C@H]1CCCN(S(=O)(=O)N2CC(C#N)C2)C1 [Example 317, (3S)-N-((2R)-1-(((1R)-1-(4-chloro-2-fluorophenyl)ethyl)amino)-l-oxo-2-propanyl)-1-((3-cyano-1-azetidinyl)sulfonyl)-N-methyl-3-piperidinecarboxamide]	0.8619
CS(=O)(=O)c1cccc(C(=O)N2CCC[C@@H]2C(=O)N[C@@H](c2cc(F)c(C(F)(F)F)cc2F)[C@H]2C[C@@H](O)C2)c1 [Example 827, (R)-N-((R)-(2,5-difluoro-4-(trifluoromethyl)phenyl)((1s,3S)-3-hydroxycyclobutyl)methyl)-1-(3-(methylsulfonyl)benzoyl)pyrrolidine-2-carboxamide]	0.15
Cc1cc(C(C)NC(=O)[C@H]2CCCN2C(=O)[C@H]2CCCN(S(=O)(=O)N3CC(C#N)C3)C2)ccc1F (stereo partly drawn) [Example 592, (2R)-1-((S)-1-((3-cyanoazetidin-1-yl)sulfonyl)piperidine-3-carbonyl)-N-(1-(4-fluoro-3-methylphenyl)ethyl)pyrrolidine-2-carboxamide]	3.477
CCS(=O)(=O)c1cncc(C(=O)N2[C@@H](C(=O)N[C@@H](c3cc(F)c(Cl)cc3F)C3CC3)C[C@H]3C[C@H]32)c1 [Example 160, (1R,3R,5R)-N-((R)-(4-chloro-2,5-difluorophenyl)(cyclopropyl)methyl)-2-((5-(ethylsulfonyl)-3-pyridinyl)carbonyl)-2-azabicyclo[3.1.0]hexane-3-carboxamide]	0.274
N#CC1CN(S(=O)(=O)N2CCC[C@H](C(=O)N3CCC[C@@H]3C(=O)NCc3c(F)c(F)c(F)c(F)c3F)C2)C1 [Example 338, 1-(((3S)-1-((3-cyano-1-azetidinyl)sulfonyl)-3-piperidinyl)carbonyl)-N-(pentafluorobenzyl)-D-prolinamide]	0.948
O=C(N[C@@H](c1ccc(C(F)(F)F)cc1F)C1CC1)[C@H]1C[C@H]2C[C@H]2N1C(=O)c1ccnc(C(F)F)c1 [Example 605, (1R,3R,5R)-N-((R)-cyclopropyl(2-fluoro-4-(trifluoromethyl)phenyl)methyl)-2-((2-(difluoromethyl)-4-pyridinyl)carbonyl)-2-azabicyclo[3.1.0]hexane-3-carboxamide]	3.685
N#CC1CN(S(=O)(=O)c2cccc(C(=O)N3CCC[C@@H]3C(=O)NCc3cccc(Cl)c3)c2)C1 [Example 190, N-(3-chlorobenzyl)-1-((3-((3-cyano-1-azetidinyl)sulfonyl)phenyl)carbonyl)-D-prolinamide]	0.3569
CS(=O)(=O)c1cc(C(=O)N2CCCC[C@@H]2C(=O)N[C@@H](c2cc(F)c(Cl)cc2F)C2CC2)ccn1 [Example 318, (2R)-N-((R)-(4-chloro-2,5-difluorophenyl)(cyclopropyl)methyl)-1-((2-(methylsulfonyl)-4-pyridinyl)carbonyl)-2-piperidinecarboxamide]	0.8652
O=C(N[C@@H](c1cc(F)c(Cl)cc1F)C1COC1)[C@H]1C[C@@H](O)CN1C(=O)c1ccnc(C(F)(F)F)c1 [Example 399, (4R)-N-((R)-(4-chloro-2,5-difluorophenyl)(3-oxetanyl)methyl)-4-hydroxy-1-((2-(trifluoromethyl)-4-pyridinyl)carbonyl)-D-prolinamide]	1.4045
CN(C)C(=O)C1CN(S(=O)(=O)N2CCC[C@H](C(=O)N3CCC[C@@H]3C(=O)NCc3ccc(C(F)(F)F)cc3)C2)C1 [Example 712, (R)-1-((S)-1-((3-(dimethylcarbamoyl)azetidin-1-yl)sulfonyl)piperidine-3-carbonyl)-N-(4-(trifluoromethyl)benzyl)pyrrolidine-2-carboxamide]	5.9215
O=C(N[C@@H](c1ccc(C(F)(F)F)cc1F)C1CC1)[C@H]1CCCN1C(=O)c1cccc(C2(F)CN(S(=O)(=O)C3CC3)C2)c1 [Example 247, N-((R)-cyclopropyl(2-fluoro-4-(trifluoromethyl)phenyl)methyl)-1-(3-(1-(cyclopropylsulfonyl)-3-fluoro-3-azetidinyl)benzoyl)-D-prolinamide]	0.5868
O=C(N[C@@H](c1cc(F)c(C(F)(F)F)cc1F)[C@H]1C[C@H](O)C1)[C@H]1C[C@H]2C[C@H]2N1C(=O)c1ccnc(C(F)F)c1 [Example 831, (1R,3R,5R)-N-((R)-(2,5-difluoro-4-(trifluoromethyl)phenyl)((lr,3R)-3-hydroxycyclobutyl)methyl)-2-(2-(difluoromethyl)isonicotinoyl)-2-azabicyclo[3.1.0]hexane-3-carboxamide]	0.6115
CS(=O)(=O)c1cc(C(=O)N2[C@@H](C(=O)N[C@@H](c3cc(F)c(C(F)(F)F)cc3F)C3CC3)C[C@@H]3C[C@@H]32)ccn1 [Example 731, (1S,3R,5S)-N-((R)-cyclopropyl(2,5-difluoro-4-(trifluoromethyl)phenyl)methyl)-2-((2-(methylsulfonyl)-4-pyridinyl)carbonyl)-2-azabicyclo[3.1.0]hexane-3-carboxamide]	6.763
O=C(N[C@@H](c1ccc(C(F)(F)F)cc1F)C1CC1)[C@H]1CCCN1C(=O)c1cccc(C(O)(O)C(F)(F)F)c1 [Example 523, (R)—N—((R)-cyclopropyl(2-fluoro-4-(trifluoromethyl)phenyl)methyl)-1-(3-(2,2,2-trifluoro-1,1-dihydroxyethyl)benzoyl)pyrrolidine-2-carboxamide]	2.582

Results, then the molecule that gave them:

AC1.4 [µM]	Structure (SMILES)
7.2015	O=C(NCc1ccc(C(F)(F)F)cc1)[C@H]1CCCN1C(=O)[C@H]1CCCN(S(=O)(=O)N2CC3(C2)CC(O)(C(F)(F)F)C3)C1 [Example 743, 1-(((3S)-1-((6-hydroxy-6-(trifluoromethyl)-2-azaspiro[3.3]hept-2-yl)sulfonyl)-3-piperidinyl)carbonyl)-N-(4-(trifluoromethyl)benzyl)-D-prolinamide]
2.553	NS(=O)(=O)c1cccc(C(=O)N2C[C@@H](F)C[C@@H]2C(=O)N[C@@H](c2ccc(C(F)(F)F)cc2F)C2CC2)c1 [Example 531, (4S)-N-((R)-cyclopropyl(2-fluoro-4-(trifluoromethyl)phenyl)methyl)-4-fluoro-1-(3-sulfamoylbenzoyl)-D-prolinamide]
0.0394	N#CC1CN(S(=O)(=O)N2CCC[C@H](C(=O)N3CCC[C@@H]3C(=O)N[C@@H](c3cc(F)c(Cl)cc3F)C3CC3)C2)C1 [Example 39, N-((R)-(4-chloro-2,5-difluorophenyl)(cyclopropyl)methyl)-1-(((3S)-1-((3-cyano-1-azetidinyl)sulfonyl)-3-piperidinyl)carbonyl)-D-prolinamide]
2.9335	CS(=O)(=O)c1cccc(C(=O)N2[C@@H](C(=O)N[C@@H](c3ccc(C(F)(F)F)cc3)C3CC3)C[C@H]3C[C@H]32)c1 [Example 596, (1R,3R,5R)-N-((R)-cyclopropyl(4-(trifluoromethyl)phenyl)methyl)-2-(3-(methylsulfonyl)benzoyl)-2-azabicyclo[3.1.0]hexane-3-carboxamide]
7.2	CS(=O)(=O)c1cccc(C(=O)N2CCC[C@@H]2C(=O)N[C@@H]2CCc3cc(C(F)(F)F)ccc32)c1 [Example 742, 1-(3-(methylsulfonyl)benzoyl)-N-((1R)-5-(trifluoromethyl)-2,3-dihydro-1H-inden-1-yl)-D-prolinamide]
4.538	O=C(NCc1ccc(C(F)(F)F)cc1)[C@H]1CCCN1C(=O)[C@H]1CCCN(S(=O)(=O)N2CC3(CCO3)C2)C1 [Example 654, (R)-1-((S)-1-(1-oxa-6-azaspiro[3.3]heptan-6-ylsulfonyl)piperidine-3-carbonyl)-N-(4-(trifluoromethyl)benzyl)pyrrolidine-2-carboxamide]
0.0198	N#CC1CN(S(=O)(=O)c2cccc(C(=O)N3CC(F)(F)C[C@@H]3C(=O)NCc3ccc(C(F)(F)F)cc3)c2)C1 [Example 8, 1-((3-((3-cyano-1-azetidinyl)sulfonyl)phenyl)carbonyl)-4,4-difluoro-N-(4-(trifluoromethyl)benzyl)-D-prolinamide]
2.9935	N#CC1CN(S(=O)(=O)N2CCC[C@H](C(=O)N3CCC[C@@H]3C(=O)N[C@@H](CO)c3ccc(C(F)(F)F)cc3)C2)C1 [Example 561, 1-(((3S)-1-((3-cyano-1-azetidinyl)sulfonyl)-3-piperidinyl)carbonyl)-N-((1R)-2-hydroxy-1-(4-(trifluoromethyl)phenyl)ethyl)-D-prolinamide]
1.227	O=C(N[C@@H](c1ccc(C(F)(F)F)cc1F)C1CC1)[C@H]1CCCN1C(=O)c1cccc(Cl)c1 [Example 378, 1-(3-chlorobenzoyl)-N-((R)-cyclopropyl(2-fluoro-4-(trifluoromethyl)phenyl)methyl)-D-prolinamide]
4.606	Cc1ccc(Cl)c(CNC(=O)[C@H]2CCCN2C(=O)[C@H]2CCCN(S(=O)(=O)N3CC(C#N)C3)C2)c1 [Example 660, N-(2-chloro-5-methylbenzyl)-1-(((3S)-1-((3-cyano-1-azetidinyl)sulfonyl)-3-piperidinyl)carbonyl)-D-prolinamide]
